Tests used:
hNAMPT protein = hNAMPT protein (Homo sapiens (Human), UniProt P43490); assay: NAMPT enzyme assay (TR-FRET/HTRF, BodiPY ligand, anti 6His-Tb); assay type: binding; settings: for IC50: NAMPT IC50 range class, read-out: IC50; for inhibition at 1 µM: read-out: Percent Inhibition
Procedure, shortened: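 TR-FRET binding assay in which His-tagged human NAMPT with anti-6His-Tb is displaced by compound from a BodiPY ligand, incubated 1 h at rt in the dark. Excitation was at 320 nm, with the 520/486 nm emission ratio read. IC50 was fitted from inhibition relative to DMSO controls.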

PC3 cells = assay: PC3 growth inhibition (Cell-titer glo, 72 hours); assay type: cell-based; settings: compound concentration 1.667 μM, PC3 cells, 72 hours, Cell-titer glo; for inhibition at 1.667 µM: Homo sapiens, PC-3, read-out: Percent Inhibition (PC3 growth inhibition)
Procedure, shortened: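 PC3 cells in RPMI1640 seeded overnight at 37 °C, 5% CO2, then exposed to compound diluted in AIM serum-free medium for 72 h. Viability by CellTiter-Glo luminescence vs DMSO controls; single-concentration % remaining viability (1 μM or 1.667 μM), or GI50/LD50 from curves.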

Chain of hNAMPT protein (P43490 whole entry): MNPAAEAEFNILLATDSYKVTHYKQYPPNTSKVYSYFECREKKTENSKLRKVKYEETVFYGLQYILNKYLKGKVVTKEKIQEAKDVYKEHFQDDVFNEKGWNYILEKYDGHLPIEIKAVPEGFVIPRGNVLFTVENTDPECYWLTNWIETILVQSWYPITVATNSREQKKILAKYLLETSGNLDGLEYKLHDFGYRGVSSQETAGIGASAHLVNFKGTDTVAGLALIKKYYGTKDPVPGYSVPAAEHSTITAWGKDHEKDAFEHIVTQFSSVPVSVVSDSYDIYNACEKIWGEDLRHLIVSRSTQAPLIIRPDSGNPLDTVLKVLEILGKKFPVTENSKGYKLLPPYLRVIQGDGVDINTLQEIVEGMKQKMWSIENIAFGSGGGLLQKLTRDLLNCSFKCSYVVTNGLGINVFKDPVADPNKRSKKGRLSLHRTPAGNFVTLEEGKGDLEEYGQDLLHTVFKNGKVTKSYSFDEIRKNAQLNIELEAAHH

SMILES	IC50 (hNAMPT protein) [nM]	Percent Inhibition (hNAMPT protein; compound concentration 1 μM) [%]	Percent Inhibition (PC3 growth inhibition) (PC3 cells) [%]	inhibition at 1 µM (hNAMPT protein; compound concentration 1 μM) [%]	inhibition at 1.667 µM (PC3 cells) [%]
COc1cc(-c2nc3cc(C(=O)NCCCc4ncc[nH]4)ccc3nc2OC(C)C)ccc1F [Compound I-344, 3-(4-fluoro-3-methoxyphenyl)-N-[3-(1H-imidazol-2-yl)propyl]-2-isopropoxyquinoxaline-6-carboxamide]	< 100	>99	1		
CN1CCC(Oc2nc3ccc(C(=O)NCCCc4ncc[nH]4)cc3nc2-c2ccc(F)cc2)CC1 [Compound I-345, 3-(4-fluorophenyl)-N-[3-(1H-imidazol-2-yl)propyl]-2-[(1-methylpiperidin-4-yl)oxy]quinoxaline-6-carboxamide]	< 100			98	2
CN1CCCCC1COc1nc2ccc(C(=O)NCCCc3ncc[nH]3)cc2nc1-c1ccc(F)cc1 (stereo not drawn) [Compound I-346, 3-(4-fluorophenyl)-N-[3-(1H-imidazol-2-yl)propyl]-2-[(1-methylpiperidin-2-yl)methoxy]quinoxaline-6-carboxamide]	< 100			98	3
O=C(NCCCc1ncc[nH]1)c1ccc2nc(OCc3cn[nH]c3)c(-c3ccc(F)cc3)nc2c1 [Compound I-347, 3-(4-fluorophenyl)-N-[3-(1H-imidazol-2-yl)propyl]-2-(1H-pyrazol-4-ylmethoxy)quinoxaline-6-carboxamide]	< 100			97	33
O=C(NCCCc1ncc[nH]1)c1ccc2nc(OCC3COC3)c(-c3ccc(F)cc3)nc2c1 [Compound I-348, 3-(4-fluorophenyl)-N-[3-(1H-imidazol-2-yl)propyl]-2-(oxetan-3-ylmethoxy)quinoxaline-6-carboxamide]	< 100			> 99	3
CC(Oc1nc2ccc(C(=O)NCCCc3ncc[nH]3)cc2nc1-c1ccc(F)cc1)c1ccccc1 (stereo not drawn) [Compound I-349, 3-(4-fluorophenyl)-N-[3-(1H-imidazol-2-yl)propyl]-2-(1-phenylethoxy)quinoxaline-6-carboxamide]	< 100			91	3
O=C(NCCCc1ncc[nH]1)c1ccc2nc(-c3ccc(F)cc3)c(-c3cccc(OC(F)(F)F)c3)nc2c1 [Compound I-350, 2-(4-fluorophenyl)-N-[3-(1H-imidazol-2-yl)propyl]-3-[3-(trifluoromethoxy)phenyl]quinoxaline-6-carboxamide]	100 to 500			86	2
O=C(NCCCc1ncc[nH]1)c1ccc2nc(OCc3ccoc3)c(-c3ccc(F)cc3)nc2c1 [Compound I-351, 3-(4-fluorophenyl)-2-(3-furylmethoxy)-N-[3-(1H-imidazol-2-yl)propyl]quinoxaline-6-carboxamide]	< 100			96	3
O=C(NCCCc1ncc[nH]1)c1ccc2nc(O[C@@H]3CCOC3)c(-c3ccc(Cl)cc3)nc2c1 [Compound I-352, 3-(4-chlorophenyl)-N-[3-(1H-imidazol-2-yl)propyl]-2-[(3R)-tetrahydrofuran-3-yloxy]quinoxaline-6-carboxamide]	< 100			99	2
O=C(NCCCc1ncc[nH]1)c1ccc2nc(-c3ccc(F)cc3)c(-c3cc(Cl)ccc3Cl)nc2c1 [Compound I-353, 3-(2,5-dichlorophenyl)-2-(4-fluorophenyl)-N-[3-(1H-imidazol-2-yl)propyl]quinoxaline-6-carboxamide]	< 100			97	2
COc1ccc(Cl)c(-c2nc3cc(C(=O)NCCCc4ncc[nH]4)ccc3nc2-c2ccc(F)cc2)c1 [Compound I-354, 3-(2-chloro-5-methoxyphenyl)-2-(4-fluorophenyl)-N-[3-(1H-imidazol-2-yl)propyl]quinoxaline-6-carboxamide]	< 100			97	2
CCOc1cc(-c2nc3cc(C(=O)NCCCc4ncc[nH]4)ccc3nc2-c2ccc(F)cc2)ccc1F [Compound I-355, 3-(3-ethoxy-4-fluorophenyl)-2-(4-fluorophenyl)-N-[3-(1H-imidazol-2-yl)propyl]quinoxaline-6-carboxamide]	< 100			> 99	2
O=C(NCCCc1ncc[nH]1)c1ccc2nc(OCc3c[nH]cn3)c(-c3ccc(F)cc3)nc2c1 [Compound I-356, 3-(4-fluorophenyl)-2-(1H-imidazol-4-ylmethoxy)-N-[3-(1H-imidazol-2-yl)propyl]quinoxaline-6-carboxamide]	500 to 1000			63	4
O=C(NCCCc1ncc[nH]1)c1ccc2nc(C3CC3)c(-c3ccc(F)cc3)nc2c1 [Compound I-357, 2-cyclopropyl-3-(4-fluorophenyl)-N-[3-(1H-imidazol-2-yl)propyl]quinoxaline-6-carboxamide]	100 to 500			83	1
CCCOc1nc2ccc(C(=O)NCCCc3nnc[nH]3)cc2nc1-c1ccc(F)cc1 [Compound I-358, 3-(4-fluorophenyl)-2-propoxy-N-[3-(4H-1,2,4-triazol-3-yl)propyl]quinoxaline-6-carboxamide]	100 to 500			78	3
CC(C)Oc1nc2ccc(C(=O)NCCCc3ccc(N)nc3)cc2nc1-c1ccc(F)cc1 [Compound I-359, N-[3-(6-aminopyridin-3-yl)propyl]-3-(4-fluorophenyl)-2-isopropoxyquinoxaline-6-carboxamide]	500 to 1000			46	3
O=C(NCCCc1ncc[nH]1)c1ccc2nc(O[C@H]3CCOC3)c(-c3ccc(Cl)cc3)nc2c1 [Compound I-360, 3-(4-chlorophenyl)-N-[3-(1H-imidazol-2-yl)propyl]-2-[(3S)-tetrahydrofuran-3-yloxy]quinoxaline-6-carboxamide]	< 100			> 99	2
O=C(NCCCc1ncc[nH]1)c1ccc2nc(-c3ccc(F)cc3)c(-c3ccc(Cl)cc3)nc2c1 [Compound I-361, 3-(4-chlorophenyl)-2-(4-fluorophenyl)-N-[3-(1H-imidazol-2-yl)propyl]quinoxaline-6-carboxamide]	< 100			98	1
Nc1ccc(CCCNC(=O)c2ccc3nc(N4CCOCC4)c(-c4ccc(F)cc4)nc3c2)cn1 [Compound I-362, N-[3-(6-aminopyridin-3-yl)propyl]-3-(4-fluorophenyl)-2-(morpholin-4-yl)quinoxaline-6-carboxamide]	100 to 500			74	2
N#Cc1ccc(-c2nc3cc(C(=O)NCCCc4ncc[nH]4)ccc3nc2-c2ccc(F)cc2)s1 [Compound I-363, 3-(5-cyano-2-thienyl)-2-(4-fluorophenyl)-N-[3-(1H-imidazol-2-yl)propyl]quinoxaline-6-carboxamide]	100 to 500			78	3
O=C(NCCCc1ncc[nH]1)c1ccc2nc(OCc3ccc(Cl)cc3)c(-c3ccc(F)cc3)nc2c1 [Compound I-364, 2-[(4-chlorobenzyl)oxy]-3-(4-fluorophenyl)-N-[3-(1H-imidazol-2-yl)propyl]quinoxaline-6-carboxamide]	100 to 500			73	4
Cc1ccc(Cl)c(-c2nc3cc(C(=O)NCCCc4ncc[nH]4)ccc3nc2-c2ccc(F)cc2)c1 [Compound I-365, 3-(2-chloro-5-methylphenyl)-2-(4-fluorophenyl)-N-[3-(1H-imidazol-2-yl)propyl]quinoxaline-6-carboxamide]	< 100			97	1
O=C(NCCCc1ncc[nH]1)c1ccc2nc(C3CCOCC3)c(-c3ccc(F)cc3)nc2c1 [Compound I-366, 3-(4-fluorophenyl)-N-[3-(1H-imidazol-2-yl)propyl]-2-(tetrahydro-2H-pyran-4-yl)quinoxaline-6-carboxamide]	500 to 1000			53	1
CC(C)Oc1nc2ccc(C(=O)NCc3ccc4nccn4c3)cc2nc1-c1ccc(F)c(F)c1 [Compound I-367, 3-(3,4-Difluorophenyl)-N-(imidazo[1,2-a]pyridin-6-ylmethyl)-2-isopropoxyquinoxaline-6-carboxamide]	500 to 1000			50	0
O=C(NCCCc1ncc[nH]1)c1ccc2nc(-c3ccc(F)cc3)c(-c3ccc(F)s3)nc2c1 [Compound I-368, 2-(4-fluorophenyl)-3-(5-fluoro-2-thienyl)-N-[3-(1H-imidazol-2-yl)propyl]quinoxaline-6-carboxamide]	< 100			> 99	1
O=C(NCCCc1ncc[nH]1)c1ccc2nc(-c3ccc(F)cc3)c(-c3ccc(Cl)c(C(F)(F)F)c3)nc2c1 [Compound I-369, 3-[4-chloro-3-(trifluoromethyl)phenyl]-2-(4-fluorophenyl)-N-[3-(1H-imidazol-2-yl)propyl]quinoxaline-6-carboxamide]	< 100			93	2

Reference: patent US10144742B2 (Millennium Pharmaceuticals, Inc., priority 2014, dated 2018)
